The values below come from patent US9981968B2, “Substituted pyrrolo[2,3-d]pyrimidines for the treatment of cancer and proliferative disorders” (Northwestern University, priority 2013, dated 2018).

One experiment relates to OVCAR-5. Kind of experiment: SRB growth assay, OVCAR-5. In kind it is cell-based. The settings on record: Homo sapiens, OVCAR-5 (Ovarian), 48 hours, read-out: Percent viability. An excerpt: (§1) Tested cell lines included, Leukemia: CCRF-CEM, HL-60(TB), MOLT-4, RPMI-8226 and SR; Non-Small Cell Lung: A549/ATCC, EKVX, HOP-62, HOP-92, NCI-H226, NCI-H23, NCI-H322M, NCI-H460 and NCI-H522; Colon: COLO 205, HCC-2998, HCT-116, HCT-15. HT29, KM12 and SW-620; CNS: SF-268, SF-295, SF-539, SNB-19, SNB-75 and U251; Melanoma: LOX IMVI, MALME-3M, M14, MDA-MB-435, SK-MEL-2, SK-MEL-28, SK-MEL-5, UACC-257 and UACC-62; Ovarian: IGR-OV1, OVCAR-3, OVCAR-4, OVCAR-5, OVCAR-8. NCI/ADR-RES and SK-OV-3; Renal: 786-0, A498, ACHN, CAKI-1, RXF 393, SN12C, TK-10 and UO-31; Prostate: DU-145 and PC-3; and Breast: MCF7, MDA-MB-231/ATCC, MDA-MB-468, HS 578T, BT-549 and T-47D.
(§2) The cells were cultured in RPMI1640 media supplemented with 10% Fetal Bovine Serum (FBS), 2 mM glutamine and with 5% CO2 and 37° C. For experiment, 5% of FBS and 50 ug/mL of gentamycin were used. Test articles were 10 μM of NUCL 381-3 or 10 μM NUCL 383-3. The positive control was 10 μM of doxorubicin.
(§3) Cells were plated in 96 well plates. The cells were plated in triplicate. Cells were plated at the densities based on NCI recommendation. Time zero cells (Tz) were fixed the following day with 50% or 80% ice cold Trichloracetic acid (TCA) and washed 5× with water. At 48 hours post addition of treatments, all remaining plates were fixed in 80% ice cold Trichloracetic acid (TCA) and washed 5× with water. After drying, one hundred microliters of 0.4% Sulphorhodamine B (SRB) in 1% acetic acid was added to each plate including the Tzero plate and incubated for 10 minutes at room temperature. After 5 additional washes with 1% acetic acid, plates were allowed to dry. One hundred microliters of Trizma base was added to each well and plates were read at 515 nm.
(§4) Percent of growth was calculated by the following formulas: [Ti/C]×100, where: Tz=absorbance readings for wells at time zero without treatment; C=absorbance readings of untreated cells (without treatment); and Ti=absorbance reading of wells with treatment.

The next experiment relates to SK-MEL-2. Kind of experiment: SRB growth assay, SK-MEL-2. The settings on record: Homo sapiens, SK-MEL-2 (Melanoma), 48 hours, read-out: Percent viability. Type of experiment: cell-based.
Text: as §1, §2, §3, §4

A further experiment deals with 786-0. The experiment is described as follows: SRB growth assay, 786-0. In kind it is cell-based. To be noted: Homo sapiens, 786-0 (Renal), 48 hours, read-out: Percent viability.
Text: as §1, §2, §3, §4

The next experiment relates to OVCAR-4. Kind of experiment: SRB growth assay, OVCAR-4. Type of experiment: cell-based. The settings on record: Homo sapiens, OVCAR-4 (Ovarian), 48 hours, read-out: Percent viability.
Text: as §1, §2, §3, §4

For the next experiment, the system named is MOLT-4. Kind of experiment: SRB growth assay, MOLT-4. Type of experiment: cell-based. The settings on record: Homo sapiens, MOLT-4 (Leukemia), 48 hours, read-out: Percent viability.
Text: as §1, §2, §3, §4

For a further experiment, the system named is EKVX. The experiment is described as follows: SRB growth assay, EKVX. In kind it is cell-based. To be noted: Homo sapiens, EKVX (Non-Small Cell Lung), 48 hours, read-out: Percent viability.
Text: as §1, §2, §3, §4

For a further experiment, the system named is LOX IMVI. Kind of experiment: SRB growth assay, LOX IMVI. In kind it is cell-based. To be noted: Homo sapiens, LOX IMVI (Melanoma), 48 hours, read-out: Percent viability.
Text: as §1, §2, §3, §4

The next experiment has as its system MDA-MB-231. Kind of experiment: SRB growth assay, MDA-MB-231. In kind it is cell-based. The settings on record: Homo sapiens, MDA-MB-231 (Breast), 48 hours, read-out: Percent viability.
Text: as §1, §2, §3, §4

A further experiment relates to SK-MEL-5. Kind of experiment: SRB growth assay, SK-MEL-5. In kind it is cell-based. The settings on record: Homo sapiens, SK-MEL-5 (Melanoma), 48 hours, read-out: Percent viability.
Text: as §1, §2, §3, §4

The next experiment deals with SR. The experiment is described as follows: SRB growth assay, SR. In kind it is cell-based. The settings on record: Homo sapiens, SR (Leukemia), 48 hours, read-out: Percent viability.
Text: as §1, §2, §3, §4

In the next experiment the test system is K-562. The experiment is described as follows: SRB growth assay, K-562. Type of experiment: cell-based. The settings on record: Homo sapiens, K562, K-562 (Leukemia), 48 hours, read-out: Percent viability.
Text: as §1, §2, §3, §4

The next experiment has as its system A549. The experiment is described as follows: SRB growth assay, A549. Type of experiment: cell-based. The settings on record: Homo sapiens, A549 (Non-Small Cell Lung), 48 hours, read-out: Percent viability.
Text: as §1, §2, §3, §4

For another experiment, the system named is PC-3. The experiment is described as follows: SRB growth assay, PC-3. To be noted: Homo sapiens, PC-3 (Prostate), 48 hours, read-out: Percent viability. In kind it is cell-based.
Text: as §1, §2, §3, §4

The next experiment has as its system SN12C. Kind of experiment: SRB growth assay, SN12C. Type of experiment: cell-based. The settings on record: Homo sapiens, SN12C (Renal), 48 hours, read-out: Percent viability.
Text: as §1, §2, §3, §4

Another experiment deals with TK-10. Kind of experiment: SRB growth assay, TK-10. Type of experiment: cell-based. The settings on record: Homo sapiens, TK-10 (Renal), 48 hours, read-out: Percent viability.
Text: as §1, §2, §3, §4

A further experiment has as its system NCI-60 Cell Lines. The experiment is described as follows: Inhibiting growth of NCI-60 cell lines (panel summary). Type of experiment: cell-based, human. To be noted: 10 μM, compared to doxorubicin. As for the experimental part: NUCL 381-3 and NUCL 383-3 (referred to as “NUCC-00381” and “NUCC-000383” above, respectively) were administered to a variety of cancer cell lines in order to test their ability to inhibit cell growth as compared to doxorubicin.
as §1
The cells were cultured in RPMI1640 media supplemented with 10% Fetal Bovine Serum (FBS), 2 mM glutamine and with 5% CO2 and 37° C. […]
Cells were plated in 96 well plates. […] One hundred microliters of Trizma base was added to each well and plates were read at 515 nm.
as §4

In a further experiment the test system is MM.1S cells. The experiment is described as follows: MTS CellTiter 96 cell proliferation assay, MM.1S. In kind it is cell-based, human. As for the experimental part: Cell viability was assessed by MTS assay as follows.
The MTS CellTiter 96 assay is a colorimetric method to assess the number of viable cells based on the conversion of a tetrazolium compound (MTS) to a formazan product by the mitochondrial dehydrogenase enzyme of the cells. This assay is used to determine the number of viable cells remaining following a drug treatment in comparison to the number of viable cells that are only treated with the drug vehicle (control cells). The amount of formazan product in the control cells is normalized to 100% and the amount of formazan in the drug treated cells is expressed as a percentage of control. This is used to generate dose response curve and estimate the drug concentration that produced a 50% decrease in the number of viable cells.

As to `COc1cccc2c1C(=O)c1c(O)c3c(c(O)c1C2=O)C[C@@](O)(C(=O)CO)C[C@@H]3O[C@H]1C[C@H](N)[C@H](O)[C@H](C)O1` [Doxorubicin, reference compound], the viability at 10 µM in the experiment with OVCAR-5 came out at 57.1%; in the experiment with SK-MEL-2, 11.6%; in the experiment with 786-0, 17.6%; in the experiment on OVCAR-4, 103%; in the experiment with MOLT-4, 30.4%; in the experiment on EKVX, 35.5%. Moreover, the viability at 10 µM in the experiment on LOX IMVI was determined as 24.4%; in the experiment on MDA-MB-231 it was 41.8%; in the experiment with SK-MEL-5, 7.01%; in the experiment on SR, 11.1%; in the experiment with K-562, 17.1%; in the experiment on A549, 86.8%. Moreover, the viability at 10 µM in the experiment on PC-3 was 50%; in the experiment with SN12C, 45.4%; with TK-10, 35.9%.
As for `CS(=O)(=O)N1CCC(Cn2cc(C(F)(F)F)c3c(Cl)ncnc32)CC1` [NUCC-0000383], the viability at 10 µM in the experiment with OVCAR-5 came to 104%; in the experiment on SK-MEL-2, 14.7%; with 786-0, 69.5%; with OVCAR-4, 97%; with MOLT-4, 17.9%; in the experiment with EKVX, 84.6%. Moreover, the viability at 10 µM in the experiment on LOX IMVI is 35.8%; in the experiment with MDA-MB-231, 33.9%; in the experiment with SK-MEL-5 it was 6.11%; in the experiment on SR, 37%; in the experiment on K-562, 10.2%; with A549 it was 100%. Also, the viability at 10 µM in the experiment on PC-3 came out at 3.55%; in the experiment with SN12C it was 25.8%; in the experiment on TK-10, 73.9%.
On to `FC(F)(F)c1cn(CC2CCNCC2)c2ncnc(Cl)c12` [NUCC-0000381], for which the viability at 10 µM came to 76.8% in the experiment on OVCAR-5; 106% in the experiment on SK-MEL-2; 94.2% in the experiment with 786-0; 53% with OVCAR-4; 75.5% in the experiment on MOLT-4; 57.5% with EKVX. Further, the viability at 10 µM turned out to be 26% in the experiment on LOX IMVI; 48.5% in the experiment with MDA-MB-231; 100% with SK-MEL-5; 16.7% in the experiment on SR; 8.38% in the experiment on K-562; 28.2% in the experiment with A549. In addition, the viability at 10 µM in the experiment with PC-3 was 8.43%; in the experiment with SN12C, 42.1%; in the experiment with TK-10, 88.5%. In addition, the “cell viability across NCI-60 cell lines” value in the experiment on NCI-60 Cell Lines is given as “reduce cell viability for a number of cell lines”. The decreasing cell proliferation entry in the experiment with MM.1S cells (0.1-10 μM, MTS assay, FIG. 1, compared with 8-amino adenosine) is recorded as “as effective in decreasing cell proliferation as 8-amine-adenosine”. Moreover, in the experiment on MM.1S cells (Homo sapiens, MM1.S, MTS cell proliferation assay, read-out: Estimated IC50), the concentration for half-maximal inhibition (IC50) was 0.6 µM.
